Measurements from US20140199327A1, “METHODS OF PROMOTING DIFFERENTIATION” (Genentech, Inc., priority 2011, published 2014).
Blank lines part the entries; values can stand above or below the molecule they belong to. Where a SMILES comes first, the peptide text is derived from it. The star is where a group is joined. Cbz = O=C(OCc1ccccc1)*

What was measured:
[1] = test system: proteasome; test: ID2 abundance after proteasome inhibition in 293T cells; type: cell-based, human; details: MG-132 10 μM
Method: (§1) The human cell lines 143B, 293T, HOS, MG-63, SAOS-2, SJSA, and U2-OS (ATCC) were maintained in DMEM with 10% FBS (Sigma), 10 units/ml penicillin, and 10 μg/ml streptomycin (Gibco). Primary human osteoblasts (PromoCell) were expanded in primary osteoblast medium (PromoCell) and subcultured in DMEM supplemented as above. Primary human mesenchymal stem cells derived from normal bone marrow (Lonza) were subcultured in mesenchymal stem cell growth medium (Lonza). For osteogenic differentiation studies, hMSC were cultured in osteogenic differentiation medium (Lonza) supplemented with 100 ng/mL BMP-9 (R&D Systems). Primary human osteosarcomas were obtained from CytoMix, LLC, and from the Cooperative Human Tissue Network. […] Murine NIH-3T3 (ATCC) were cultured in supplemented DMEM. Wild-type and USP1^−/− DT-40 cells were a kind gift from K. Patel and were cultured in RPMI with 7% FBS and 3% chicken serum (Gibco). MG-132 (Calbiochem) was used at 10 μM. Cycloheximide (Sigma) was used at 25 μg/ml.
(§2) Rat monoclonal antibodies were raised against the C-terminal 100 amino-acids of human USP1 or WDR48 to produce the monoclonal USP1 antibody 5E10 and WDR48 antibody 9F10. […]

[2] = test system: proteasome; test: ID protein abundance after proteasome inhibition in U2-OS cells; type: cell-based, human
Method: as §1, §2

[3] = test system: proteasome; test: ID2 abundance after proteasome inhibition in DT40 cells; type: cell-based, chicken
Method: as §1

[4] = test system: 143B osteosarcoma xenograft; test: 143B osteosarcoma xenograft model; type: in vivo, NCr nude mice
Method: U2-OS, HOS, or SAOS cells were transfected three times with pRS shUSP1 or shCTL as follows: Cells were initially transfected with shUSP1 or shCTL, cultured for 2 days, and selected with puromycin for 3 days. Cells were retransfected with pMACS and shUSP1 or shCTL, cultured for 2 days, sorted by anti-H-2K^k bead sort (Miltenyi), cultured for 1 day, and serially re-transfected with shUSP1 or shCTL. Cells were cultured for an additional 3 days and osteoblast and hMSC markers were assessed by flow cytometry, real-time RT-PCR, and ALP assay. 143B cells were transduced with pTRIPZ-based inducible USP1 or control shRNA vectors and puromycin-resistant cells were subcultured.
8-week-old female NCr nude mice were injected subcutaneously in the right hind flank with 2.5×10^6 143 B shUSP1 cells in a volume of 100 μl of HBSS+matrigel. Doxycycline-treated mice were fed 1 mg/mL solutions of doxycycline in 5% sucrose water. Mice were monitored for tumor establishment and growth as well as body weight changes. When mice in a given group achieved a mean tumor volume of 2000 mm^3 and/or reached 78 days post-inoculation, mice were euthanized and dissected to confirm the presence or absence of tumor formation.

[5] = target: T1, ID2 (co-transfected / co-expressed in 293T cells)
T1 chain: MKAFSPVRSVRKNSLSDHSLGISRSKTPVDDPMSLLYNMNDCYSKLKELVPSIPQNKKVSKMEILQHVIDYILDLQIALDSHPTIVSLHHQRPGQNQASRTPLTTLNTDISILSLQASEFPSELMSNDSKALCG

[6] = target: T2, endogenous USP1 (U2-OS and HOS osteosarcoma cells) (human, UniProt O94782 1-785); test: immunoprecipitation of endogenous USP1 from U2-OS cells, blot for ID2; control with nonspecific IgG
T2 construct: Endogenous protein immunoprecipitated from human cell lines
T2 sequence: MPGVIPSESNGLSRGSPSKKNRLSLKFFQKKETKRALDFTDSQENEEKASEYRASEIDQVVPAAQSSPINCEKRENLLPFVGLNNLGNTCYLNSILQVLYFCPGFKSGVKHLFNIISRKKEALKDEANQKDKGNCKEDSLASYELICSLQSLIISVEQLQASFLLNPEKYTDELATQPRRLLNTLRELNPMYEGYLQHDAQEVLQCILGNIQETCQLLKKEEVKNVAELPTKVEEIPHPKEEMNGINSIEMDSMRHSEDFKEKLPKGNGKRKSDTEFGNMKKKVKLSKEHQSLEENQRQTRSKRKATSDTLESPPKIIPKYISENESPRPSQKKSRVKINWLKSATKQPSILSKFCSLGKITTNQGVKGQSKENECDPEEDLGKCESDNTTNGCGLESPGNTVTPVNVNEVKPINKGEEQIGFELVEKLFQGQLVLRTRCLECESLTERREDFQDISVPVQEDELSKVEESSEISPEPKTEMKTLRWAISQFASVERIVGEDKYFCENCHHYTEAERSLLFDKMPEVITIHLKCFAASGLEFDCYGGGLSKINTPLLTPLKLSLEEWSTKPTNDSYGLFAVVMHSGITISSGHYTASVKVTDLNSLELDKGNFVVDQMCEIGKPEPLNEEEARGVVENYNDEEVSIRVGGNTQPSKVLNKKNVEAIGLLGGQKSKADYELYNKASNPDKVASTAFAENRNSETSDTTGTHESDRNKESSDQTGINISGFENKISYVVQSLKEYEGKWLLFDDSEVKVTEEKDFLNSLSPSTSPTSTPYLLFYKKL

[7] = target: T3, ubiquitinated ID2-Flag (ID2 with C-terminal Flag epitope, modified with HA-ubiquitin, affinity purified from 293T cells)
T3 chain: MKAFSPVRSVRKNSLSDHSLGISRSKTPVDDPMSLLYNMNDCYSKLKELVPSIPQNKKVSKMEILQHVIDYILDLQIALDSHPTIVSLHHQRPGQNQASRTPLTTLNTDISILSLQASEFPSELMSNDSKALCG

Molecule: CC(C)C[C@@H](C=O)NC(=O)[C@H](CC(C)C)NC(=O)[C@H](CC(C)C)NC(=O)OCc1ccccc1 [MG-132] (Cbz-Leu-Leu-Leu-aldehyde)
endogenous ID2 abundance [1]: ID2 accumulates
ID expression after USP1 knockdown ([2]; U2-OS cells with USP1 knockdown): did restore ID expression
ID protein abundance ([2]; U2-OS cells, MG-132 alone): did not by itself alter ID protein abundance
ID2 abundance ([3]; USP1−/− DT40 cells): increased ID2
ID2 abundance ([3]; wild-type DT40 cells): not

Molecule: doxycycline-induced USP1 shRNA: doxycycline-inducible pTRIPZ shRNA targeting human USP1, 5′-AGGCAATACTTGCTATCTTAAT-3′ (SEQ ID NO:12), Open Biosystems
xenograft tumors that achieved stasis and differentiation in situ ([4]; 143B USP1-deficient xenograft tumors): four of ten
ALP activity in xenografts ([4]; 143B xenografts): enhanced ALP activity
ID1 and ID2 in xenografts ([4]; 143B xenografts, doxycycline): reduced ID1 and ID2
USP1 expression in xenografts ([4]; 143B xenografts, doxycycline): suppressed USP1 expression
tumor growth ([4]; 143B xenografts, doxycycline): reduced 143B tumor growth
osteogenic gene expression in xenografts ([4]; 143B xenografts, RT-PCR, in situ hybridization): promoted OSTEONECTIN, RUNX2, SPP1/OSTEOPONTIN, OSTERIX, and BGLAP/OSTEOCALCIN expression

B1: USP33-Flag (human USP33 with C-terminal Flag epitope) (protein)
chain: MTGSNSHITILTLKVLPHFESLGKQEKIPNKMSAFRNHCPHLDSVGEITKEDLIQKSLGTCQDCKVQGPNLWACLENRCSYVGCGESQVDHSTIHSQETKHYLTVNLTTLRVWCYACSKEVFLDRKLGTQPSLPHVRQPHQIQENSVQDFKIPSNTTLKTPLVAVFDDLDIEADEEDELRARGLTGLKNIGNTCYMNAALQALSNCPPLTQFFLDCGGLARTDKKPAICKSYLKLMTELWHKSRPGSVVPTTLFQGIKTVNPTFRGYSQQDAQEFLRCLMDLLHEELKEQVMEVEEDPQTITTEETMEEDKSQSDVDFQSCESCSNSDRAENENGSRCFSEDNNETTMLIQDDENNSEMSKDWQKEKMCNKINKVNSEGEFDKDRDSISETVDLNNQETVKVQIHSRASEYITDVHSNDLSTPQILPSNEGVNPRLSASPPKSGNLWPGLAPPHKKAQSASPKRKKQHKKYRSVISDIFDGTIISSVQCLTCDRVSVTLETFQDLSLPIPGKEDLAKLHSSSHPTSIVKAGSCGEAYAPQGWIAFFMEYVKRFVVSCVPSWFWGPVVTLQDCLAAFFARDELKGDNMYSCEKCKKLRNGVKFCKVQNFPEILCIHLKRFRHELMFSTKISTHVSFPLEGLDLQPFLAKDSPAQIVTYDLLSVICHHGTASSGHYIAYCRNNLNNLWYEFDDQSVTEVSESTVQNAEAYVLFYRKSSEEAQKERRRISNLLNIMEPSLLQFYISRQWLNKFKTFAEPGPISNNDFLCIHGGVPPRKAGYIEDLVLMLPQNIWDNLYSRYGGGPAVNHLYICHTCQIEAEKIEKRRKTELEIFIRLNRAFQKEDSPATFYCISMQWFREWESFVKGKDGDPPGPIDNTKIAVTKCGNVMLRQGADSGQISEETWNFLQSIYGGGPEVILRPPVVHVDPDILQAEEKIEVETRSL
deubiquitinating activity against ID2 [5]: unlike USP1, USP33 lacked deubiquitinating activity against ID2 (data not shown)

binding result [6]: binds
B2: endogenous ID2 (U2-OS, HOS and 293T cells) (other)
chain: MKAFSPVRSVRKNSLSDHSLGISRSKTPVDDPMSLLYNMNDCYSKLKELVPSIPQNKKVSKMEILQHVIDYILDLQIALDSHPTIVSLHHQRPGQNQASRTPLTTLNTDISILSLQASEFPSELMSNDSKALCG
notes: Endogenous protein of human cell lines

B3: USP1-Flag (wild-type human USP1 with in-frame C-terminal Flag epitope) (protein)
chain: MPGVIPSESNGLSRGSPSKKNRLSLKFFQKKETKRALDFTDSQENEEKASEYRASEIDQVVPAAQSSPINCEKRENLLPFVGLNNLGNTCYLNSILQVLYFCPGFKSGVKHLFNIISRKKEALKDEANQKDKGNCKEDSLASYELICSLQSLIISVEQLQASFLLNPEKYTDELATQPRRLLNTLRELNPMYEGYLQHDAQEVLQCILGNIQETCQLLKKEEVKNVAELPTKVEEIPHPKEEMNGINSIEMDSMRHSEDFKEKLPKGNGKRKSDTEFGNMKKKVKLSKEHQSLEENQRQTRSKRKATSDTLESPPKIIPKYISENESPRPSQKKSRVKINWLKSATKQPSILSKFCSLGKITTNQGVKGQSKENECDPEEDLGKCESDNTTNGCGLESPGNTVTPVNVNEVKPINKGEEQIGFELVEKLFQGQLVLRTRCLECESLTERREDFQDISVPVQEDELSKVEESSEISPEPKTEMKTLRWAISQFASVERIVGEDKYFCENCHHYTEAERSLLFDKMPEVITIHLKCFAASGLEFDCYGGGLSKINTPLLTPLKLSLEEWSTKPTNDSYGLFAVVMHSGITISSGHYTASVKVTDLNSLELDKGNFVVDQMCEIGKPEPLNEEEARGVVENYNDEEVSIRVGGNTQPSKVLNKKNVEAIGLLGGQKSKADYELYNKASNPDKVASTAFAENRNSETSDTTGTHESDRNKESSDQTGINISGFENKISYVVQSLKEYEGKWLLFDDSEVKVTEEKDFLNSLSPSTSPTSTPYLLFYKKL
in vitro deubiquitination assay (HA-ubiquitin immunoblot of ID2-Flag) [7]: Ubiquitinated ID2 was decreased by wild-type USP1 but not USP1 C90S

B4: USP1 C90S-Flag (catalytically inactive point mutant of human USP1 with C-terminal Flag epitope) (protein)
chain: MPGVIPSESNGLSRGSPSKKNRLSLKFFQKKETKRALDFTDSQENEEKASEYRASEIDQVVPAAQSSPINCEKRENLLPFVGLNNLGNTSYLNSILQVLYFCPGFKSGVKHLFNIISRKKEALKDEANQKDKGNCKEDSLASYELICSLQSLIISVEQLQASFLLNPEKYTDELATQPRRLLNTLRELNPMYEGYLQHDAQEVLQCILGNIQETCQLLKKEEVKNVAELPTKVEEIPHPKEEMNGINSIEMDSMRHSEDFKEKLPKGNGKRKSDTEFGNMKKKVKLSKEHQSLEENQRQTRSKRKATSDTLESPPKIIPKYISENESPRPSQKKSRVKINWLKSATKQPSILSKFCSLGKITTNQGVKGQSKENECDPEEDLGKCESDNTTNGCGLESPGNTVTPVNVNEVKPINKGEEQIGFELVEKLFQGQLVLRTRCLECESLTERREDFQDISVPVQEDELSKVEESSEISPEPKTEMKTLRWAISQFASVERIVGEDKYFCENCHHYTEAERSLLFDKMPEVITIHLKCFAASGLEFDCYGGGLSKINTPLLTPLKLSLEEWSTKPTNDSYGLFAVVMHSGITISSGHYTASVKVTDLNSLELDKGNFVVDQMCEIGKPEPLNEEEARGVVENYNDEEVSIRVGGNTQPSKVLNKKNVEAIGLLGGQKSKADYELYNKASNPDKVASTAFAENRNSETSDTTGTHESDRNKESSDQTGINISGFENKISYVVQSLKEYEGKWLLFDDSEVKVTEEKDFLNSLSPSTSPTSTPYLLFYKKL
in vitro deubiquitination assay (HA-ubiquitin immunoblot of ID2-Flag) [7]: Ubiquitinated ID2 was decreased by wild-type USP1 but not USP1 C90S
